Among the data in US7271153B2, “Nitrogenous heterocyclic derivatives, medicinal compositions containing the same, medicinal uses thereof, and intermediates therefor” (Kissei Pharmaceutical Co., Ltd., priority 2001, dated 2007) are IC50 values, retold here.

pIC50: −log10 of the molar value.

The target in the test is T1, human SGLT2 (Homo sapiens, UniProt P31639, I433V).
T1 construct: expressed in transfected cells; host or cells: COS-7 cells (RIKEN CELL BANK RCB0539), transient electroporation with plasmid KL29
T1 sequence (P31639 1-672 I433V): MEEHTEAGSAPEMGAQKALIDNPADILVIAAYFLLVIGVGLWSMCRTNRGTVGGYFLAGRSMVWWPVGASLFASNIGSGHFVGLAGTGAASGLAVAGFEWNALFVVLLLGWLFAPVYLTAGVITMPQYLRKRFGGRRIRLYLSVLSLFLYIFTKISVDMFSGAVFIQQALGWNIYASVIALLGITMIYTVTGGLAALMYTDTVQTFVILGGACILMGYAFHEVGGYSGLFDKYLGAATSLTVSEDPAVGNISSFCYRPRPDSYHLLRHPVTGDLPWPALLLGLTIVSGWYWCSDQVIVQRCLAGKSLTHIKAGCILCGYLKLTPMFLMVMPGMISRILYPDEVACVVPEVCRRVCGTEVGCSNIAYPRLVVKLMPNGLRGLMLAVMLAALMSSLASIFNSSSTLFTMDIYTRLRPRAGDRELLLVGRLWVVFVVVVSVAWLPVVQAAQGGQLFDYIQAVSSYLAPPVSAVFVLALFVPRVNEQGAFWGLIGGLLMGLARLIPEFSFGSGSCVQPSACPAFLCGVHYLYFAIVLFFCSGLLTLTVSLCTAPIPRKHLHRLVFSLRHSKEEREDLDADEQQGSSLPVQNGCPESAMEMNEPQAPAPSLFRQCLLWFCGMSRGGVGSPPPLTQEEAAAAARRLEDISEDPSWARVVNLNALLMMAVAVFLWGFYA
Kind of test: Assay for inhibitory effect on human SGLT2 activity (uptake of methyl-α-D-glucopyranoside in COS-7 cells expressing transiently human SGLT2). As to conditions: methyl-α-D-(U-14C)glucopyranoside uptake, 37° C., 2 hours, read-out: IC50 (concentration at which 50% of methyl-α-D-glucopyranoside uptake was inhibited). Format: cell-based. As for the experimental part: Assay for Inhibitory Effect on Human SGLT2 Activity
1) Construction of the Plasmid Vector Expressing Human SGLT2
Preparation of the cDNA library for PCR amplification was performed by reverse transcription of a total RNA deprived from human kidney (Ori gene) with oligo dT as the primer, using SUPERSCRIPT Preamplification System (Gibco-BRL: LIFE TECHNOLOGIES). The DNA fragment coding for human SGLT2 was amplified by the PCR reaction using Pfu DNA Polymerase (made by Stratagene), in which the human kidney cDNA library described above was used as the template and the following oligo nucleotides 0702F and 0712R, presented as Sequence Numbers 1 and 2 respectively, were used as the primers. The amplified DNA fragment was ligated into pCR-Blunt (Invitrogen), a vector for cloning, according to standard method of the kit. The Escherichia coli HB101 Competent Cell (made by TOYOBO Co., Ltd.) was transformed according to usual method and then selection of the transformants was performed on the LB agar medium containing 50 μg/mL of kanamycin. After plasmid DNA was extracted and purified from the one of the transformants, amplifying of the DNA fragment coding for human SGLT2 was performed by the PCR reaction using Pfu DNA Polymerase (made by Stratagene), in which the following oligo nucleotides 0714F and 0715R, presented as Sequence Numbers 3 and 4 respectively, were used as the primers. The amplified DNA fragment was digested with restriction enzymes, Xho I and Hind III, and then purified with Wizard Purification System (Promega). This purified DNA fragment was inserted at the corresponding restriction sites of pcDNA3.1 (−) Myc/His—A (Invitrogen), avector for expressing of fusion protein. The Escherichia coli HB101 Competent Cell (made by TOYOBO Co., Ltd.) was transformed according to usual method and then selection of the transformant was performed on the LB agar medium containing 100 μg/mL of ampicillin. After plasmid DNA was extracted and purified from this transformant, the base sequence of the DNA fragment inserted at the multi-cloning sites of the vector pcDNA3.1 (−) Myc/His—A was analyzed. […] Sequentially, a clone in which valine is substituted for isoleucine-433 was obtained. This plasmid-vector expressing human SGLT2 in which the peptide presented as Sequence Number 5 is fused to the carboxyl terminal alanine residue was designated KL29.
2) Preparation of the Cells Expressing Transiently Human SGLT2
KL29, the plasmid coding human SGLT2, was transfected into COS-7 cells (RIKEN CELL BANK RCB0539) by electroporation. Electroporation was performed with GENE PULSER II (Bio-Rad Laboratories) under the condition: 0.290 kV, 975 μF, 2×10^6 cells of COS-7 cell and 20 μg of KL29 in 500 μL of OPTI-MEM I medium (Gibco-BRL: LIFE TECHNOLOGIES) in the 0.4 cm type cuvette. […]
On to `CCc1ccc(Cc2c(C)cc(C)nc2O[C@@H]2O[C@H](CO)[C@@H](O)[C@H](O)[C@H]2O)cc1` [Example 18, 3-(4-Ethylbenzyl)-2-(β-D-glucopyranosyloxy)-4,6-dimethyl-pyridine], for which the pIC50 was 7.39.

For the compound `COc1ccc(Cc2c(C)cc(C)nc2O[C@@H]2O[C@H](CO)[C@@H](O)[C@H](O)[C@H]2O)cc1` [Example 19, 2-(β-D-Glucopyranosyloxy)-3-(4-methoxybenzyl)-4,6-dimethyl-pyridine], the pIC50 was 7.35.

In the case of `Cc1cc(C)c(Cc2ccc(CCO)cc2)c(O[C@@H]2O[C@H](CO)[C@@H](O)[C@H](O)[C@H]2O)n1` [Example 20, 2-(β-D-Glucopyranosyloxy)-3-[4-(2-hydroxyethyl)benzyl]-4,6-dimethylpyridine], the pIC50 was 7.35.

For `COc1ccc(Cc2c(C)cc(OC)nc2O[C@@H]2O[C@H](CO)[C@@H](O)[C@H](O)[C@H]2O)cc1` [Example 21, 2-(β-D-Glucopyranosyloxy)-6-methoxy-3-(4-methoxybenzyl)-4-methylpyridine], the pIC50 is 7.26.
